Source: publication PMC11571207, “Stereorandomized Oncocins with Preserved Ribosome Binding and Antibacterial Activity” (Journal of Medicinal Chemistry, 2024)
Like-named read-outs stand apart in the source and are kept apart here. No end group written: not given here.

Columns and labels:
A. baumannii ATCC19606 = experiment: microbe, parasite or virus in culture; conditions: for MIC A. baumannii ATCC19606: supplement CSV
Procedure, shortened: (§1)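 Read-out was visible growth after MTT addition, the MIC being the lowest inhibitory peptide concentration. Bacteria grown to log phase in LB were exposed in MH medium to peptide from 64 μg/mL in twofold dilutions for 15-18h at 37°C.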

E. coli W3110 = experiment: microbe, parasite or virus in culture; conditions: for MIC E. coli W3110: supplement CSV
Procedure, shortened: as §1

K. pneumoniae NCTC 418 = experiment: microbe, parasite or virus in culture; conditions: for MIC K. pneumoniae NCTC418: supplement CSV
Procedure, shortened: as §1

P. aeruginosa PAO1 = experiment: microbe, parasite or virus in culture; conditions: for MIC P. aeruginosa PAO1: supplement CSV
Procedure, shortened: as §1

S. aureus COL (MRSA) = experiment: microbe, parasite or virus in culture; conditions: for MIC S. aureus COL (MRSA): supplement CSV
Procedure, shortened: as §1

E. cloacae = experiment: microbe, parasite or virus in culture; conditions: for MIC E. cloacae: supplement CSV
Procedure, shortened: (§2)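 Minimal inhibitory concentrations come from broth microdilution in MH medium, with a top peptide concentration of 64 μg/mL halved serially.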

K. pneumoniae OXA-48 = experiment: microbe, parasite or virus in culture; conditions: for MIC K. pneumoniae OXA-48: supplement CSV
Procedure, shortened: as §2

[1] = tested on: P. aeruginosa PA14 2P4 (pmrB); experiment: microbe, parasite or virus in culture; conditions: for MIC P. aeruginosa PA14 2P4: supplement CSV
Procedure, shortened: as §2

P. aeruginosa PA14 = experiment: microbe, parasite or virus in culture; conditions: for MIC P. aeruginosa PA14: supplement CSV
Procedure, shortened: as §2

P. aeruginosa ZEM-1A = experiment: microbe, parasite or virus in culture
Procedure, shortened: as §2

P. aeruginosa ZEM9A = experiment: microbe, parasite or virus in culture; conditions: for MIC P. aeruginosa ZEM9A: supplement CSV
Procedure, shortened: as §2

[2] = tested on: P. aeruginosa PA14 4.18 (pmrB); conditions: for MIC P. aeruginosa PA14 4.18: supplement CSV
human red blood cells = experiment: Hemolysis assay, minimum hemolytic concentration
[3] = polymyxin B resistant strain, 12.5% MHB pH 7.4, 16–20 h at 37 °C
[4] = polymyxin B resistant strain, full MHB pH 7.4, 16–20 h at 37 °C

VDKPPYLPRPRPPRRIYNR-NH2 [L-Onc, reference compound]
MIC A. baumannii, 12.5% MHB (A. baumannii ATCC19606; A. baumannii ATCC19606, 12.5% Müller–Hinton medium, 16–20 h at 37 °C): 4 µg/mL
MIC A. baumannii, Full MHB (A. baumannii ATCC19606; A. baumannii ATCC19606, full Müller–Hinton medium, 16–20 h at 37 °C): 32 µg/mL
MIC A. baumannii ATCC19606 (A. baumannii ATCC19606; 12.5% MH pH 7.4): 4 µg/mL
MIC A. baumannii ATCC19606 (A. baumannii ATCC19606; full MH pH 7.4): 32 µg/mL
MIC E. coli, 12.5% MHB (E. coli W3110; E. coli W3110, 12.5% Müller–Hinton medium, 16–20 h at 37 °C, broth microdilution): 2 µg/mL
MIC E. coli, Full MHB (E. coli W3110; E. coli W3110, full Müller–Hinton medium, 16–20 h at 37 °C, broth microdilution): 4 µg/mL
MIC E. coli W3110 (E. coli W3110; 12.5% MH pH 7.4): 2 µg/mL
MIC E. coli W3110 (E. coli W3110; full MH pH 7.4): 4 µg/mL
MIC K. pneumoniae, 12.5% MHB (K. pneumoniae NCTC 418; K. pneumoniae NCTC 418, 12.5% Müller–Hinton medium, 16–20 h at 37 °C): 4 / 4 μg/mL
MIC K. pneumoniae, Full MHB (K. pneumoniae NCTC 418; K. pneumoniae NCTC 418, full Müller–Hinton medium, 16–20 h at 37 °C): 4 / 4 μg/mL
MIC K. pneumoniae NCTC418 (K. pneumoniae NCTC 418; 12.5% MH pH 7.4): 4 µg/mL
MIC K. pneumoniae NCTC418 (K. pneumoniae NCTC 418; full MH pH 7.4): 4 µg/mL
MIC P. aeruginosa, 12.5% MHB (P. aeruginosa PAO1; P. aeruginosa PAO1, 12.5% Müller–Hinton medium, 16–20 h at 37 °C): 16 µg/mL
MIC P. aeruginosa, Full MHB (P. aeruginosa PAO1; P. aeruginosa PAO1, full Müller–Hinton medium, 16–20 h at 37 °C): > 64 µg/mL
MIC P. aeruginosa PAO1 (P. aeruginosa PAO1; 12.5% MH pH 7.4): 16 µg/mL
MIC P. aeruginosa PAO1 (P. aeruginosa PAO1; full MH pH 7.4): >64 µg/mL
MIC S. aureus, 12.5% MHB (S. aureus COL (MRSA); S. aureus COL (MRSA), 12.5% Müller–Hinton medium, 16–20 h at 37 °C): 32 µg/mL
MIC S. aureus, Full MHB (S. aureus COL (MRSA); S. aureus COL (MRSA), full Müller–Hinton medium, 16–20 h at 37 °C): > 64 µg/mL
MIC S. aureus COL (MRSA) (S. aureus COL (MRSA); 12.5% MH pH 7.4): 32 µg/mL
MIC S. aureus COL (MRSA) (S. aureus COL (MRSA); full MH pH 7.4): >64 µg/mL
MIC E. cloacae, 12.5% MHB (E. cloacae; 12.5% MHB pH 7.4, 16–20 h at 37 °C): 1 µg/mL
MIC E. cloacae, full MHB (E. cloacae; full MHB pH 7.4, 16–20 h at 37 °C): 32 µg/mL
MIC E. cloacae (E. cloacae; 12.5% MH pH 7.4): 1 µg/mL
MIC E. cloacae (E. cloacae; full MH pH 7.4): 32 µg/mL
MIC K. pneumoniae OXA-48, 12.5% MHB (K. pneumoniae OXA-48; carbapenem-resistant, 12.5% MHB pH 7.4, 16–20 h at 37 °C): 2 µg/mL
MIC K. pneumoniae OXA-48, full MHB (K. pneumoniae OXA-48; carbapenem-resistant, full MHB pH 7.4, 16–20 h at 37 °C): 32 µg/mL
MIC K. pneumoniae OXA-48 (K. pneumoniae OXA-48; 12.5% MH pH 7.4): 2 µg/mL
MIC K. pneumoniae OXA-48 (K. pneumoniae OXA-48; full MH pH 7.4): 32 µg/mL
MIC P. aeruginosa PA14 2P4 (pmrB), 12.5% MHB [1, 3]: 16 µg/mL
MIC P. aeruginosa PA14 2P4 (pmrB), full MHB [1, 4]: > 64 µg/mL
MIC P. aeruginosa PA14 2P4 ([1]; 12.5% MH pH 7.4): 16 µg/mL
MIC P. aeruginosa PA14 2P4 ([1]; full MH pH 7.4): >64 µg/mL
MIC P. aeruginosa PA14, 12.5% MHB (P. aeruginosa PA14; 12.5% MHB pH 7.4, 16–20 h at 37 °C, two different duplicate MIC determinations): 32 µg/mL
MIC P. aeruginosa PA14, full MHB (P. aeruginosa PA14; full MHB pH 7.4, 16–20 h at 37 °C, two different duplicate MIC determinations): > 64 µg/mL
MIC P. aeruginosa PA14 (P. aeruginosa PA14; 12.5% MH pH 7.4): 32 µg/mL
MIC P. aeruginosa PA14 (P. aeruginosa PA14; full MH pH 7.4): >64 µg/mL
MIC P. aeruginosa ZEM-1A, 12.5% MHB (P. aeruginosa ZEM-1A; clinical isolate, 12.5% MHB pH 7.4, 16–20 h at 37 °C, cells marked c: single measurement (in duplicates)): 8 to 16 µg/mL
MIC P. aeruginosa ZEM-1A (P. aeruginosa ZEM-1A; supplement CSV, 12.5% MH pH 7.4): 8 to 16 µg/mL
MIC P. aeruginosa ZEM9A, 12.5% MHB (P. aeruginosa ZEM9A; clinical isolate, 12.5% MHB pH 7.4, 16–20 h at 37 °C): 32 µg/mL
MIC P. aeruginosa ZEM9A, full MHB (P. aeruginosa ZEM9A; clinical isolate, full MHB pH 7.4, 16–20 h at 37 °C): > 64 µg/mL
MIC P. aeruginosa ZEM9A (P. aeruginosa ZEM9A; 12.5% MH pH 7.4): 32 µg/mL
MIC P. aeruginosa ZEM9A (P. aeruginosa ZEM9A; full MH pH 7.4): >64 µg/mL
MIC P. aeruginosa PA14 4.18 (pmrB), 12.5% MHB [2, 3]: 32 µg/mL
MIC P. aeruginosa PA14 4.18 (pmrB), full MHB [2, 4]: > 64 µg/mL
MIC P. aeruginosa PA14 4.18 ([2]; 12.5% MH pH 7.4): 32 µg/mL
MIC P. aeruginosa PA14 4.18 ([2]; full MH pH 7.4): >64 µg/mL
Haemolysis on hRBC, MHC (human red blood cells; 2.5% human red blood cells (final) in 10 mM phosphate, 150 mM NaCl, pH 7.4, 25 °C, 4 h, visual inspection): >1000 µg/mL
MHC human red blood cells (human red blood cells; supplement CSV): >1000 µg/mL
